The results in this text go back to article PMC10824102, “Identification of small molecule inhibitors of G3BP-driven stress granule formation” (The Journal of Cell Biology, 2024).

Assay [1] deals with preformed stress granules in U2OS cells stably expressing G3BP1-GFP. The assay can be described thus: Post-addition: dissolution of heat stress-induced stress granules. It counts as cell-based. The conditions noted are these: for immediate reduction in stress granule area (preformed granules): 50 μM added after 25 min of 43°C heat stress; for stress granule disassembly during recovery at 37°C: 50 μM, compared with cells treated with inactive enantiomers. The procedure: For post-addition of compounds, U2OS cells stably expressing G3BP1-GFP were seeded into eight-well Lab-Tek chambered cover glass (Nunc) for sodium arsenite experiments or 35-mm glass-bottom dishes (MatTek) for heat shock experiments. Immediately prior to the experiment, media was replaced with FluoroBrite DMEM media (Gibco) in each well supplemented with 10% FBS and 4 mM L-glutamine; for sodium arsenite experiments, arsenite was added at a final concentration of 250 μM. Cells were then placed on a microscope on which 37°C temperature and 5% CO2 were maintained using a Bold Line Cage Incubator (Okolab) and an objective heater (Bioptechs), and 5–10 xy fields were stored. For sodium arsenite experiments, acquisition began immediately after finding all xy positions, 4 min after the addition of sodium arsenite. 30 min after arsenite was added, 250 μl FluoroBrite DMEM with 250 μM sodium arsenite and 0.1 mM (2×) G3I compound (vortexed for 5 s) was added to the sample. For heat shock experiments, each xy position was imaged every minute. At 2 min into the acquisition, the objective heater was ramped to 43°C. Following this, 250 μM (5×) G3I compound was prepared in FluoroBrite DMEM and vortexed for 15 s. This solution was kept on a 47°C heater near the microscope along with a pipette tip. At 27 min into the acquisition (25 min into heat shock), 250 μl of the prewarmed solution was added to the cells using the prewarmed tip. We note that the solution was heated to 47°C to compensate for the rapid heat loss when adding the solution. At 32 min into the acquisition (30 min heat shock), the heat was ramped down to 37°C. All imaging was acquired on a Yokogawa CSU W1 spinning disk attached to a Nikon Ti2 eclipse with a Photometrics Prime 95B camera using Nikon Elements software (v5.20.00 to v5.21.02). Imaging was performed through a Nikon Plan Apo 60× 1.40 NA oil objective with Immersol 518 F (refractive index 1.518; Zeiss), and Perfect Focus 2.0 (Nikon) was engaged for all captures.
Automated granule detection and measurement were performed using a combination of ilastik and CellProfiler software. Briefly, ND2 multipoint timelapse files were resaved as image sequences in Fiji with the Bio-Formats plugin so that individual frames of the movies could be treated as individual images for analysis. From there, pixel classification in ilastik was used to segment both stress granules and the total cellular area within the field using the G3BP1-GFP channel via machine learning. These segmentations, along with the original G3BP1-GFP image, were input into CellProfiler, where objects were defined using the masks from ilastik.

For assay [2], the system named is stress granule formation in human iPSC-derived cortical neurons. The assay can be described thus: Stress granule formation in iPSC-derived cortical neurons (co-incubation). It counts as cell-based. The conditions noted are these: 50 μM co-incubated with or without 500 μM NaAsO2 for 60 min. The procedure:
(§1) i3N iPSC clones were gifts from Michael E. Ward (National Institutes of Health, Bethesda, MD, USA) and were used to generate a G3BP1-mNeongreen knock-in iPSC line. iPS neurons were differentiated with a two-step protocol (predifferentiation and maturation) as previously described ([Wang et al., 2017]). For predifferentiation, iPSCs were incubated with 1 µg/ml doxycycline hyclate (Sigma-Aldrich) for 3 days at a density of 1.2 × 10^6 cells/well in six-well dishes coated with Matrigel in knockout DMEM (KO-DMEM)/F12 medium (Thermo Fisher Scientific) containing N2 supplement (Thermo Fisher Scientific), non-essential amino acids (NEAA; Thermo Fisher Scientific), GlutaMAX Supplement (Thermo Fisher Scientific), and Y-27632 ([…] Technologies). The medium was changed daily and Y-27632 was removed from day 2. For maturation, predifferentiated precursor cells were dissociated, counted, and subplated at 25 × 10^4 cells/ml on dishes coated with 50 μg/ml poly-L-ornithine in BrainPhys neuronal medium ([…] Technologies) containing N2 (Thermo Fisher Scientific), B-27, 20 ng/ml BDNF (PeproTech), 20 ng/ml GDNF (PeproTech), 500 µg/ml dibutyryl cyclic-AMP (Sigma-Aldrich), 200 nM L-ascorbic acid (Sigma-Aldrich), 1 µg/ml natural mouse laminin (Thermo Fisher Scientific), 1 μM Ara-C (Sigma-Aldrich), and 1 µg/ml doxycycline hyclate. Half-medium was changed every other day. […]

The target in assay [3] is T1, NTF2L domain of G3BP1 (GFP-NTF2L) interaction with caprin 1 and USP10 (Homo sapiens, UniProt Q13283).
T1 construct: lysates expressing the NTF2L domain of G3BP1 (GFP-NTF2L); expressed in transfected cells; host or cells: HEK293T cells expressing GFP-NTF2L (lysate)
T1 sequence (Q13283 11-133 limits assumed): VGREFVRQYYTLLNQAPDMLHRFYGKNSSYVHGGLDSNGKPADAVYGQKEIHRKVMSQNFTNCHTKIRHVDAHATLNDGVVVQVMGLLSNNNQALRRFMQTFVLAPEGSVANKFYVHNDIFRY
Briefly: Coimmunoprecipitation of GFP-NTF2L with caprin 1 and USP10 in HEK293T lysates. It counts as biochemical. The conditions noted are these: 25 and 50 μM, GFP IP.

The test system of assay [4] is preformed stress granules in human iPSC-derived cortical neurons. Briefly: Dissolution of preformed stress granules in iPSC-derived cortical neurons. It counts as cell-based. The conditions noted are these: 50 μM added after 30 min of 500 μM NaAsO2. The procedure: as §1

Consider `COCCC(NC(=O)C(C)NC(=O)C(NC(=O)C(NC(=O)C(F)CC(C)(C)C)C(C)(C)O)C(C)c1ccccc1)C(=O)N(C)Cc1ccccc1` (stereo not shown) [G3Ia], for which, in assay [1], the “immediate reduction in stress granule area (preformed granules)” value is on record as about 54% and the “stress granule disassembly during recovery at 37°C” value was “completed disassembly faster”. For the same compound, the “spontaneous and arsenite-induced stress granule formation” value in assay [2] is “blocked both spontaneous and arsenite-induced stress granule formation”.

As for `CC(NC(=O)C(NC(=O)C(NC(=O)CCC(C)(C)C)C(C)(C)O)C(C)c1ccccc1)C(=O)N1CCCC1c1ccccc1` (stereo not shown) [G3Ib], the “interaction of NTF2L domain with caprin 1 and USP10” value in assay [3] is listed as “dose-dependent reduction”. Moreover, in assay [1], the “immediate reduction in stress granule area (preformed granules)” value is recorded as about 68% and the “stress granule disassembly during recovery at 37°C” value is “completed disassembly faster”. In addition, the “dissolution of preformed stress granules” value in assay [4] is reported as “nearly instantaneously dissolved stress granules”.
